ChEMBL document CHEMBL3739257, “Aryl amide small-molecule inhibitors of microRNA miR-21 function” (Bioorg Med Chem Lett, 2015)
The source made the active and inactive calls. No cut-off for these calls is given here.

What was measured:
HeLa [1] = assay: Inhibition of microRNA miR-21 expression in human HeLa cells assessed as reduction of intracellular miR-21 level by measuring luciferase signal relative to control; assay type: cell-based
HeLa [2] = assay: Inhibition of microRNA miR-21 expression in human HeLa cells assessed as luciferase signal at 10 uM after 48 hrs by microplate reader analysis relative to control; assay type: cell-based
Huh-7 = assay: Inhibition of microRNA miR-122 expression in human Huh7-psiCHECK cells assessed as luciferase expression at 10 uM after 48 hrs by microplate reader analysis; assay type: cell-based
HeLa [3] = assay: Inhibition of miR-21 expression in human HeLa cells at 10 uM after 48 hrs by qRT-PCR analysis; assay type: functional
[4] = Inhibition of microRNA miR-21 expression in human HeLa cells assessed as luciferase signal at 10 uM after 48 hrs by microplate reader analysis; assay type: cell-based
HeLa [5] = assay: Inhibition of miR-222 expression in human HeLa cells at 10 uM after 48 hrs by qRT-PCR analysis; assay type: functional, cell-based
HeLa [6] = assay: Inhibition of microRNA miR-21P transfected in human HeLa cells assessed as luciferase signal at 10 uM; assay type: cell-based
Lampyridae = assay: Inhibition of firefly luciferase at 10 uM preincubated for 1 hr followed by ATP addition measured after 3 mins by CellTiter-Glo assay
HeLa [7] = assay: Inhibition of miR-17-5p expression in human HeLa cells at 10 uM after 48 hrs by qRT-PCR analysis; assay type: functional, cell-based
HeLa [8] = assay: Inhibition of miR-125b expression in human HeLa cells at 10 uM after 48 hrs by qRT-PCR analysis; assay type: functional, cell-based
HeLa [9] = assay: Inhibition of primary microRNA miR-21 expression in human HeLa cells assessed as luciferase signal at 10 uM by qRT-PCR analysis relative to control; assay type: cell-based

Question: For `O=C(NCCC1=CCCCC1)c1ccc(O)cc1`, which fold change (FC) (HeLa [1]) is on record?
Answer: 1.66

Question: Which inhibition (HeLa [2]) does the source give for `COc1ccc(C(=O)Nc2ccc3ccccc3c2)cc1` here?
Answer: > 100%

Question: What about the fold change (FC) (HeLa [1]) of the same compound?
Answer: 1.21

Question: And the inhibition (Huh-7)?
Answer: inactive

Question: With `COc1ccc(C(=O)NCCC2=CCCCC2)cc1OC(C)=O` as the compound, how does the fold change (FC) (HeLa [1]) read?
Answer: 1.83

Question: For `COc1ccc(C(=O)NCCc2ccccn2)cc1`, which fold change (FC) (HeLa [1]) is on record?
Answer: 1

Question: Which fold change (FC) (HeLa [1]) does the source give for `O=C(NCCc1ccccc1)c1ccc(Oc2ccccc2)cc1` here?
Answer: 1.4

Question: With `CCCNC(=O)c1ccc(OC)c(O)c1` as the compound, how does the fold change (FC) (HeLa [1]) read?
Answer: 1.11

Question: With `COc1ccc(C(=O)NCCc2ccc3ccccc3c2)cc1` as the compound, how does the fold change (FC) (HeLa [1]) read?
Answer: 1.41

Question: For `COc1ccc(C(=O)NCCC2CCCCC2)cc1O`, which fold change (FC) (HeLa [1]) is on record?
Answer: 1.93

Question: For `O=C(NCCC1=CCCCC1)c1cccc(O)c1`, which fold change (FC) (HeLa [1]) is on record?
Answer: 1.61

Question: Which fold change (FC) (HeLa [1]) does the source give for `COc1ccc(C(=O)NCCC2=CCCCC2)cc1O` here?
Answer: 1.63

Question: With `COc1ccc(NC(=O)c2ccc(OC)cc2)cc1` as the compound, how does the inhibition at 10 µM (HeLa [3]) read?
Answer: 61%

Question: What about the EC50 [4] of the same compound?
Answer: 0.86 µM

Question: And the inhibition (HeLa [2])?
Answer: > 100%

Question: And the inhibition (HeLa [5])?
Answer: inactive

Question: What about the inhibition (HeLa [6]) of the same compound?
Answer: inactive

Question: What about the inhibition (Lampyridae) of the same compound?
Answer: inactive

Question: What about the inhibition (HeLa [7]) of the same compound?
Answer: inactive

Question: And the fold change (FC) (HeLa [1])?
Answer: 2.88

Question: What about the inhibition (Huh-7) of the same compound?
Answer: inactive

Question: What about the inhibition (HeLa [8]) of the same compound?
Answer: inactive

Question: And the inhibition (HeLa [9])?
Answer: inactive

Question: With `COc1ccc(C(=O)NCCc2ccccc2)cc1` as the compound, how does the fold change (FC) (HeLa [1]) read?
Answer: 0.5

Question: Which results are given for `COc1ccc(C(=O)NCCC2=CCCCC2)cc1OC`?
Answer: inhibition at 10 µM (HeLa [3]): 17%; EC50 [4]: 10.8 µM; inhibition (HeLa [2]): > 100%; inhibition (HeLa [5]): inactive; inhibition (HeLa [6]): inactive; inhibition (Lampyridae): inactive; inhibition (HeLa [7]): inactive; fold change (FC) (HeLa [1]): 2.01; inhibition (Huh-7): inactive; inhibition (HeLa [8]): inactive; inhibition (HeLa [9]): inactive

Question: Which inhibition at 10 µM (HeLa [3]) does the source give for `COc1ccc(C(=O)Nc2ccccc2)cc1` here?
Answer: 43%

Question: And the EC50 [4]?
Answer: 2.3 µM

Question: What about the inhibition (HeLa [5]) of the same compound?
Answer: inactive

Question: And the inhibition (HeLa [6])?
Answer: inactive

Question: And the inhibition (Lampyridae)?
Answer: inactive

Question: What about the inhibition (HeLa [7]) of the same compound?
Answer: inactive

Question: What about the fold change (FC) (HeLa [1]) of the same compound?
Answer: 2.39

Question: And the inhibition (HeLa [8])?
Answer: inactive

Question: What about the inhibition (HeLa [9]) of the same compound?
Answer: inactive

Question: For `O=C(Nc1ccccc1)c1ccccc1`, which fold change (FC) (HeLa [1]) is on record?
Answer: 1.49

Question: With `C=CCNC(=O)c1ccc(OC)cc1` as the compound, how does the fold change (FC) (HeLa [1]) read?
Answer: 1.28

Question: With `Nc1ccc(C(=O)NCCc2ccccc2)cc1` as the compound, how does the fold change (FC) (HeLa [1]) read?
Answer: 1.46

Question: Which fold change (FC) (HeLa [1]) does the source give for `COc1ccc(C(=O)NCCCc2ccccc2)cc1` here?
Answer: 1.94

Question: With `CCCOc1ccc(C(=O)NCCc2ccccc2)cc1` as the compound, how does the fold change (FC) (HeLa [1]) read?
Answer: 1.36

Question: Which fold change (FC) (HeLa [1]) does the source give for `COc1ccc(C(N)=O)cc1` here?
Answer: 1.11

Question: Which fold change (FC) (HeLa [1]) does the source give for `COc1ccc(C(=O)NCc2ccccc2)cc1` here?
Answer: 1.43

Question: With `COc1ccc(C(=O)NCCCCc2ccccc2)cc1` as the compound, how does the fold change (FC) (HeLa [1]) read?
Answer: 1.03

Question: Which fold change (FC) (HeLa [1]) does the source give for `O=C(NCCC1=CCCCC1)c1ccccc1` here?
Answer: 1.58

Question: Which inhibition at 10 µM (HeLa [3]) does the source give for `O=C(NCCC1=CCCCC1)c1ccc(O)c(O)c1` here?
Answer: 42%

Question: And the EC50 [4]?
Answer: 6.1 µM

Question: What about the inhibition (HeLa [2]) of the same compound?
Answer: > 100%

Question: What about the inhibition (HeLa [5]) of the same compound?
Answer: inactive

Question: And the inhibition (HeLa [6])?
Answer: inactive

Question: What about the inhibition (Lampyridae) of the same compound?
Answer: inactive

Question: What about the inhibition (HeLa [7]) of the same compound?
Answer: inactive

Question: And the fold change (FC) (HeLa [1])?
Answer: 2.22

Question: And the inhibition (Huh-7)?
Answer: inactive

Question: What about the inhibition (HeLa [8]) of the same compound?
Answer: inactive

Question: What about the inhibition (HeLa [9]) of the same compound?
Answer: inactive

Question: With `COc1ccc(C(=O)NCCC2=CCCCC2)cc1OC1CCN(C(C)C)CC1` as the compound, how does the fold change (FC) (HeLa [1]) read?
Answer: 1.36

Question: With `COc1ccc(C(=O)NCCc2ccccc2)cc1O` as the compound, how does the fold change (FC) (HeLa [1]) read?
Answer: 0.95

Question: For `CCOc1ccc(C(=O)NCCc2ccccc2)cc1`, which fold change (FC) (HeLa [1]) is on record?
Answer: 1.56

Question: Which fold change (FC) (HeLa [1]) does the source give for `COc1ccc(C(=O)NCCC2=CCCCC2)cc1` here?
Answer: 1.05
